Measured values as given in patent publication US5015659A, “Thienylacetic acid derivatives, process for the preparation thereof, the use thereof, and pharmaceuticals containing these and the preparation thereof” (Cassella Aktiengesellschaft, priority 1989, dated 1991).
Structures can show the parent of a compound that is named as a salt.

What was measured:
[1] = test system: Ischaemia-induced amnesia in the Mongolian gerbil; assay: Ischaemia-induced amnesia, passive-avoidance learning after brief bilateral cerebral ischaemia; type: in vivo; conditions: for Ischaemia-induced learning impairment, % reversal of learning impairment: immediately after the end of ischaemia; for ED50: Meriones unguiculatus, ip, i.p. immediately after the end of ischaemia (3-5 min), read-out: Dose which elicits a half-maximum (about 50%) antagonism of the learning impairment
Protocol: Brief bilateral cerebral ischaemia (3-5 min) in the gerbil leads to a prolonged learning impairment in passive-avoidance learning. The learning impairment can be antagonized if the animals are treated intraperitoneally with the compounds of the general formula I immediately after the end of ischaemia. The table which follows indicates the dosages which elicit a half-maximum (about 50%) antagonism of the learning impairment. The compounds according to the invention show a pronounced superiority to the compounds of the state of the art.

glycine receptor = assay: Receptor-binding studies in vitro, rat cortex synaptosomes; conditions: for Kd: read-out: Binding to glycine receptors in the brain, Kd
[2] = test system: Scopolamine-induced amnesia in the mouse; assay: Scopolamine-induced amnesia, passive-avoidance learning test; type: in vivo; conditions: scopolamine 3 mg/kg i.p.; for Scopolamine amnesia, % reversal of amnesia: 30 mg/kg oral pretreatment
Protocol: 1) Scopolamine-induced amnesia in the mouse
Injection of a scopolamine dose of 3 mg/kg i.p. leads to an amnesia in a passive-avoidance learning test.

## Cl.NCC(=O)NC(C(=O)O)c1cccs1 (stereo not shown) [Example 9, 2-Thienyl-N-aminoacetylaminoacetic acid hydrochloride]
[1]; 0.10 mg/kg ip
  Ischaemia-induced learning impairment, % reversal of learning impairment: 54%
[1]
  ED50: 0.1 mg/kg
Glycine receptor
  Kd: 1800 nM

## NC(=O)CN1CC(O)CC1=O (stereo not shown) [Oxiracetam, reference compound]
[1]; 100.00 mg/kg ip
  Ischaemia-induced learning impairment, % reversal of learning impairment: 46%
[1]
  ED50: 100 mg/kg

## COc1ccc(C(=O)N2CCCC2=O)cc1 [Aniracetam, reference compound]
[1]; 30.00 mg/kg ip
  Ischaemia-induced learning impairment, % reversal of learning impairment: 45%
[1]
  ED50: 30 mg/kg

## NC(C(=O)NCC(=O)O)c1cccs1 (stereo not shown) [Example 11, N-(2-Thienylaminoacetyl)glycine]
[1]; 1.00 mg/kg ip
  Ischaemia-induced learning impairment, % reversal of learning impairment: 54%
[1]
  ED50: 1 mg/kg
Glycine receptor
  Kd: 1800 nM

## NC(=O)CN1CCCC1=O [Piracetam, reference compound]
[2]
  Scopolamine amnesia, % reversal of amnesia: 18%
[2]; oral pretreatment
  antagonism of scopolamine-induced amnesia (in words): only marginal activity
Glycine receptor
  Binding to glycine receptors in the brain (in words): No specific binding

## NC(=O)C(NCC(=O)O)c1cccs1 (stereo not shown) [Example 8, 2-Thienyl-N-hydroxycarbonylmethylaminoacetamide hydrochloride]
[2]
  Scopolamine amnesia, % reversal of amnesia: 71%
[1]; 0.03 mg/kg ip
  Ischaemia-induced learning impairment, % reversal of learning impairment: 58%
[1]
  ED50: 0.03 mg/kg

## NC(=O)CNC(C(=O)O)c1cccs1 (stereo not shown) [Example 5, 2-Thienyl-N-aminocarbonylmethylaminoacetic acid]
[2]
  Scopolamine amnesia, % reversal of amnesia: 56%
[1]; 1.00 mg/kg ip
  Ischaemia-induced learning impairment, % reversal of learning impairment: 51%
[1]
  ED50: 1 mg/kg
